In patent US10752598B2, “Aryldiazepine derivatives as RSV inhibitors” (Enanta Pharmaceuticals, Inc., priority 2017, dated 2020) one finds EC50 data, which are given here for 20 molecules.

The test relates to Human RSV-A (“Long” strain). Put plainly: RSV-A in vitro cytoprotection (CPE) assay in HEp-2 cells, ATPlite readout. Particulars: human respiratory syncytial virus, 96 h, 4-day incubation, ATPlite cell viability. It counts as cell-based. The source says:
RSV is a single stranded negative sense RNA virus that causes respiratory tract infections which can be dangerous to infants, the elderly, and immunosuppressed individuals. Currently there is no vaccine, and therapeutic options are both costly and of limited effectiveness. These approved treatments are Ribavirin, and Palivizumab/Synagis (a monoclonal antibody). RSV has two genotypes, A and B, which differ primarily in the structure of the virus' surface “G” attachment protein. Our current primary screen focusses on RSV-A and uses an in vitro cytoprotection assay where compounds are added in 2-fold dilutions to cells which are then subjected to fully replicative viral particles. Cell viability is measured several days later along with separate measurements of compound cytotoxicity. This report focuses on the results of our most recent screening of compounds.
HEp-2 cells, (originally derived from tumors grown in irradiated-cortisonised weanling rats that had been injected with epidermoid carcinoma tissue from a person's larynx, but later found to be indistinguishable from HeLa cells by PCR DNA analysis), were used for the culturing of genotype A, “Long” strain RSV. Flasks were inoculated with RSV and viral stocks were collected once cytopathic effect (CPE) was greater than 90%. Viral stocks in 25% sucrose media were snap frozen using liquid nitrogen to increase viral stability. Viral stock titers were quantified by tissue culture infectious dose 50% (TCID50) using 8,000 cells per well and 3-fold viral dilutions across a 96-well plate, cultured for 4 days.
Following extensive parameter testing, the final assay is run as follows: HEp-2 cells are seeded into the inner 60 wells of a 96-well plate at 8,000 cells per well in a volume of […] Growth Media (DMEM without phenol red, 1% L-Glut, 1% Penn/Strep, 1% nonessential amino acids, 10% FBS). 2-fold serial dilutions of control and test compounds are added to the wells in duplicate in a total volume of 25 μL. Viral stock is then added to the wells in a volume of 25 μL, bringing the total volume of each well to 100 μL. Each 96-well plate has a control column of 6 wells with cells and virus but no compound (negative control, max CPE), a column with cells but no compound or virus (positive control, minimum CPE), and a column with no cells or virus or compound (background plate/reagent control). The control wells with cells but no virus are given an additional 25 uL of growth media containing an equal quantity of sucrose as those wells receiving the viral stock in order to keep consistent in media and volume conditions. The outer wells of the plate are filled with 125 μL of growth media to act as a thermal and evaporative moat around the test wells. Following a 4-day incubation period, the plates are read using ATPlite (50 uL added per well), which quantifies the amount of ATP (a measure of cell health) present in each well. Assay plates are read using the Envision luminometer. […] EC50 ranges are as follows: A<2 μM; B 2-5 μM; C>5 μM.
The molecule `O=C(Nc1ccccc1)NC1C(=O)Nc2ccccc2N(c2ccccc2)C1=O` (centres unmarked) [Example 20] yielded an EC50 of more than 5 µM. As to `O=C1Nc2ccccc2N(c2ccccc2)C[C@@H]1Nc1nnc(-c2ccc(N3CCOCC3)cc2F)o1` [Example 12], the EC50 is more than 5 µM. With `O=C(N[C@H]1CN(c2ccccc2)c2ccccc2NC1=O)c1ccccc1` [Example 4, (S)—N-(4-oxo-1-phenyl-2,3,4,5-tetrahydro-1H-benzo[b][1,4]diazepin-3-yl)benzamide] the figure was more than 5 µM; with `O=C(NC1C(=O)Nc2ccccc2N(c2ccccc2)C1=O)c1ccccc1` (centres unmarked) [Example 21], more than 5 µM. With `Cc1ccc(-c2nnc(N[C@H]3CN(c4ccccc4)c4ccccc4NC3=O)o2)o1` [Example 9] the figure was more than 5 µM; with `O=C1Nc2ccccc2N(c2ccccc2)C[C@@H]1Nc1nnc(-c2cn(C3CCCC3)nc2N2CCOCC2)o1` [Example 10], less than 2 µM; with `O=C1Nc2ccccc2N(c2ccccc2)C[C@@H]1Nc1nnc(-c2ccccc2)o1` [Example 1, (S)-5-phenyl-3-((5-phenyl-1,3,4-oxadiazol-2-yl)amino)-1,3,4,5-tetrahydro-2H-benzo[b][1,4]diazepin-2-one], more than 5 µM.

Consider `COCCNc1cc(C(F)(F)F)cnc1-c1nnc(N[C@H]2CN(c3ccccc3)c3ccccc3NC2=O)o1` [Example 8], for which the 50% effective concentration (EC50) was more than 5 µM.

In the case of `O=C1Nc2ccccc2N(c2ccccc2)C(=O)C1Nc1nnc(-c2ccccc2)o1` (centres unmarked) [Example 19], the half-maximal effective concentration (EC50) is more than 5 µM. With `O=C1Nc2ccccc2N(c2ccccc2)C[C@@H]1Nc1nnc(-c2ncc(C3CC3)cc2N2CCOCC2)o1` [Example 7], the EC50 was less than 2 µM. In the case of `O=C1Nc2ccccc2N(c2ccccc2)C[C@@H]1Nc1nnc(-c2nc(C3CC3)sc2N2CCOCC2)o1` [Example 15], the EC50 was less than 2 µM. `O=C(Nc1ccccc1)N[C@H]1CN(c2ccccc2)c2ccccc2NC1=O` [Example 3]: the EC50 is more than 5 µM. With `O=C1Nc2ccccc2N(c2ccccc2)C[C@@H]1Nc1nnc(-c2cccnc2N2CCOCC2)o1` [Example 6] the figure was 2 to 5 µM; with `O=C1Nc2ccccc2N(c2ccccc2)C[C@@H]1Nc1nc2ccccc2o1` [Example 2, (S)-3-(benzo[d]oxazol-2-ylamino)-5-phenyl-1,3,4,5-tetrahydro-2H-benzo[b][1,4]diazepin-2-one], more than 5 µM; with `O=C1Nc2ccccc2N(c2ccccc2)C[C@@H]1Nc1nnc(-c2nc(-c3cccnc3)sc2N2CCOCC2)o1` [Example 16], less than 2 µM. With `O=C1Nc2ccccc2N(c2ccccc2)C[C@@H]1Nc1nnc(-c2cn(-c3ccccn3)nc2N2CCOCC2)o1` [Example 13] the figure was 2 to 5 µM. On to `O=C1Nc2ccccc2N(c2ccccc2)C[C@@H]1Nc1nnc(-c2ccc(F)cc2)o1` [Example 11], for which the concentration for a half-maximal effect (EC50) is more than 5 µM. With `O=C1Nc2ccccc2N(c2cc(F)c(F)c(F)c2)C[C@@H]1Nc1nnc(-c2ncc(C(F)(F)F)cc2N2CCOCC2)o1` [Example 17] the figure was more than 5 µM; with `O=C1Nc2ccccc2N(c2ccccc2)C[C@@H]1Nc1nnc(-c2nc(C(F)(F)F)sc2N2CCOCC2)o1` [Example 14, (S)-3-((5-(5-morpholino-2-(trifluoromethyl)thiazol-4-yl)-1,3,4-oxadiazol-2-yl)amino)-5-phenyl-1,3,4,5-tetrahydro-2H-benzo[b][1,4]diazepin-2-one], less than 2 µM; with `O=C1Nc2ccccc2N(c2ccccc2)C[C@@H]1Nc1nnc(-c2ncc(C(F)(F)F)cc2N2CCOCC2)o1` [Example 5, (S)-3-((5-(3-morpholino-5-(trifluoromethyl)pyridin-2-yl)-1,3,4-oxadiazol-2-yl)amino)-5-phenyl-1,3,4,5-tetrahydro-2H-benzo[b][1,4]diazepin-2-one], less than 2 µM.
